Data reported in patent publication US10344002B2, “Compositions and methods for treating metabolic disorders” (NuSirt Sciences, Inc., priority 2016, dated 2019).

Legend:
C. elegans = experiment: Lifespan of C. elegans under normal and mild oxidative stress (Paraquat) conditions; type: in vivo; conditions: for increase of median lifespan: 10 nM and 100 nM, p<0.0002
Method: Lifespan Protocol: Wild-type worms were synchronized and hatched L1s were transferred to normal NGM agar plates until L4/young adult stage (3 days). 100 synchronized stage L4 worms per group were picked and placed on NGM agar plates seeded with E. coli strain OP-50 (=day 1 of study). Paraquat was added in the indicated concentration to the agar plates, the Compound 2 concentrations were dissolved in the E. coli suspension. The worms were maintained at 21° C. throughout the duration of the study. Live worms were placed on new plates every day to eliminate progeny.
Statistics: For the statistical analysis of the lifespan study with C. elegans, data were analyzed via Kaplan-Meier survival curves and statistical significance between curves was determined with the Log-rank (Mantel_Cox) test using Prism 6 (GraphPad Software, La Jolla Calif., USA, www.graphpad.com).

AMPK = experiment: Western blot, P-AMPK/AMPK in C. elegans treated from L1 stage to adulthood; type: in vivo; conditions: for ratio of P-AMPK/AMPK (FIG. 7B): 3 days, control approximately 0.18
Method: C. elegans culture: Synchronized L1 wild-type worms were transferred to NGM agar plates with the following treatments until adulthood (3 days): 1. control NGM plates, 2. NGM plate with 10 nM Compound 2 added to E. coli suspension, 3. NGM plate with 100 nM Compound 2 added to E. coli suspension.
Western blots: Phospho-AMPK, AMPK, Phospho-ACC, ACC antibodies were obtained from Cell Signaling (Danvers, Mass.). Sir2 antibody was obtained from MyBiosource (San Diego, Calif.). Protein levels of cell extracts were measured by BCA kit (Thermo Scientific, Pittsburgh, Pa.). For Western blot, 10-50 μg protein was resolved on 4-15% gradient polyacrylaminde gels (Criterion precast gel, Bio-Rad Laboratories, Hercules, Calif.), transferred to either PVDF or nitrocellulose membranes, incubated in blocking buffer (3% BSA or 5% non-fat dry milk in TBS) and then incubated with primary antibody (1:1000 dilution), washed and incubated with horseradish peroxidase- or fluorescence-conjugated secondary antibody (1:10000 dilution). Visualization was conducted using BioRad ChemiDoc instrumentation and software (Bio-Rad Laboratories, Hercules, Calif.) and band intensity was assessed using Image Lab 4.0 with correction for background and loading controls.

[1] = mild oxidative stress (500 uM Paraquat)

In the case of `CC(C)C[C@@H]1NC(N=C(N)N)=NC1=O` [Compound 2], the “increase of maximum lifespan” value (C. elegans; [1]) is reported as 14%, the “increase of median lifespan” value (C. elegans; [1]) is reported as 30% and the “increase of median lifespan” value (C. elegans; normal conditions) is reported as 18%. For the same molecule, the “ratio of P-AMPK/AMPK (FIG. 7B)” value (AMPK; 10 nM) was “approximately 0.27”, the “ratio of P-AMPK/AMPK (FIG. 7B)” value (AMPK; 100 nM) was “approximately 0.26” and the “increase of P-AMPK/AMPK protein expression” value (AMPK; L1 stage to adulthood (3 days), p=0.06) was “approximately 50%”.
